Results as given in article PMC5766609 (Scientific Reports, 2018).
Read-outs that look alike come from different tables or passages of the source. Starred links: 1 amine or outer side, 2 acyl side, 3 side chain; linkers in the order of their positions; H or OH if unused. Non-standard residues stand in square brackets, D forms with d. Residues, ends and D or L forms follow the SMILES beside them. Groups on a side chain read outwards from the residue. *: point of attachment. γGlu = O=C(O)[C@H](CCC(=O)[*:2])N[*:1]; Palmitoyl = CCCCCCCCCCCCCCCC(=O)*

Columns and labels:
[1] = target: T1, human glucagon receptor (GCGR) (Homo sapiens, UniProt P47871); experiment: cAMP assay on CHO-JumpIn cells stably transfected with human glucagon receptor (HitHunter cAMP); assay type: cell-based; conditions: cAMP accumulation, CHO-JumpIn cells with human GCGR, value ± spread;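 note: peptides tested as 4-fold serial dilutions starting from a 2 µM solution, cells exposed 1 hr at RT in darkness, cAMP quantified against a cAMP standard curve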
T1 construct: expressed in transfected cells; host or cells: CHO-JumpIn cells, stably transfected

[2] = target: T2, human GLP-1 receptor (GLP1R) (Homo sapiens, UniProt P43220); experiment: cAMP assay on CHO-JumpIn cells stably transfected with human GLP-1 receptor (HitHunter cAMP); assay type: cell-based; conditions: value ± spread;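 note: peptides tested as 4-fold serial dilution series, cells exposed 1 hr at RT in the dark, cAMP quantified against a cAMP standard calibration curve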
T2 construct: expressed in transfected cells; host or cells: CHO-JumpIn cells, stably transfected

[3] = Table 2, buffer PBS, 0.1% BSA, 100 μM RO 20-1724, 20% serum, 1 hr at RT, read-out: EC50 GCGR
[4] = Table 2, cAMP accumulation, buffer PBS, 0.1% BSA, 100 μM RO 20-1724, 20% serum, 1 hr at RT, read-out: EC50 GLP1R

T1 sequence (P47871 26-477): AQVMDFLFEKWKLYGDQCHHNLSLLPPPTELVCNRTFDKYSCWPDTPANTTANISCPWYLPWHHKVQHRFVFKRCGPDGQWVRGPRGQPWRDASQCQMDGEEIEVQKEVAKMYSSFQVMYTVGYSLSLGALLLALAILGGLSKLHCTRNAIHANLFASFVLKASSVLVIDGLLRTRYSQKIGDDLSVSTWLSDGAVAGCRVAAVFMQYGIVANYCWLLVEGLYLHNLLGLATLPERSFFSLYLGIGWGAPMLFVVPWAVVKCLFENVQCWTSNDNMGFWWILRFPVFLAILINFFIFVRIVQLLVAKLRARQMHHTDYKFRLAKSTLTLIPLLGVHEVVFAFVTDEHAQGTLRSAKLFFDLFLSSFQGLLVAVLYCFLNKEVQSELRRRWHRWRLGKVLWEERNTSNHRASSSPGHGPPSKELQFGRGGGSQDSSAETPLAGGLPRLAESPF
T2 sequence (P43220 24-463): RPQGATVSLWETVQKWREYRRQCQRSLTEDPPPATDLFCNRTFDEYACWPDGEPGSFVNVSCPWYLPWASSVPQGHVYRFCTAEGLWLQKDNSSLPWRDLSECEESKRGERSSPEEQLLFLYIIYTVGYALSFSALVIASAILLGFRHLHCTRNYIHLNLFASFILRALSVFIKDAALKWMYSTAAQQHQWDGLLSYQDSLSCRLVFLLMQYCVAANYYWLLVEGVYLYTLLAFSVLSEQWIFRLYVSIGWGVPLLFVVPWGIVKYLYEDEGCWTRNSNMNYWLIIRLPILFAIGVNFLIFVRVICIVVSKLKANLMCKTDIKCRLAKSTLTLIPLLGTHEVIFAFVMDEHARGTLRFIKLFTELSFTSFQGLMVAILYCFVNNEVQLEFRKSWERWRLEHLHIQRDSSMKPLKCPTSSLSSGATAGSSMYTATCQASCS

| Compound | EC50 [1, 3] [nM] | EC50 [2, 4] [nM] | EC50 ([1]; Table 3, engineered versus parent peptides, read-out: EC50 hGCGR) [nM] | EC50 ([2]; Table 3, engineered versus parent peptides, cAMP accumulation, read-out: EC50 hGLP1) [nM] |
| --- | --- | --- | --- | --- |
| CSCC[C@H](NC(=O)[C@H](CC(C)C)NC(=O)[C@H](Cc1c[nH]c2ccccc12)NC(=O)[C@H](CCC(N)=O)NC(=O)[C@@H](NC(=O)[C@H](Cc1ccccc1)NC(=O)[C@H](CC(=O)O)NC(=O)[C@H](CCC(N)=O)NC(=O)[C@H](C)NC(=O)[C@H](CCCNC(=N)N)NC(=O)[C@H](CCCNC(=N)N)NC(=O)[C@H](CO)NC(=O)[C@H](CC(=O)O)NC(=O)[C@H](CC(C)C)NC(=O)[C@H](Cc1ccc(O)cc1)NC(=O)[C@H](Cc1ccc(O)cc1)NC(=O)[C@H](Cc1ccc(O)cc1)NC(=O)[C@H](Cc1ccc(O)cc1)NC(=O)[C@H](CC(=O)O)NC(=O)[C@H](Cc1c[nH]cn1)NC(=O)[C@H](CC(C)C)NC(=O)[C@H](Cc1ccccc1)NC(=O)[C@@H](NC(=O)CNC(=O)[C@H](CCC(N)=O)NC(=O)[C@H](CO)NC(=O)[C@@H](N)Cc1c[nH]cn1)[C@@H](C)O)C(C)C)C(=O)N[C@@H](CC(=O)O)C(=O)N[C@H](C(N)=O)[C@@H](C)O [Peptide 17] (H-HSQGTFLHDYYYYLDSRRAQDFVQWLMDT-NH2) | 0.527 ± 0.315 | > 200 |  |  |
| CSCC[C@H](NC(=O)[C@H](CCCNC(=N)N)NC(=O)[C@H](CO)NC(=O)[C@H](CC(=O)O)NC(=O)[C@H](CC(C)C)NC(=O)[C@H](Cc1ccc(O)cc1)NC(=O)[C@H](CCCCN)NC(=O)[C@H](CO)NC(=O)[C@H](Cc1ccc(O)cc1)NC(=O)[C@H](CC(=O)O)NC(=O)[C@H](CO)NC(=O)[C@@H](NC(=O)[C@H](Cc1ccccc1)NC(=O)[C@@H](NC(=O)CNC(=O)[C@H](CCC(N)=O)NC(=O)[C@H](CO)NC(=O)[C@@H](N)Cc1c[nH]cn1)[C@@H](C)O)[C@@H](C)O)C(=O)N[C@@H](C)C(=O)N[C@@H](Cc1ccc(O)cc1)C(=O)N[C@@H](CC(=O)O)C(=O)N[C@@H](Cc1ccccc1)C(=O)N[C@H](C(=O)N[C@@H](CCC(N)=O)C(=O)N[C@@H](Cc1c[nH]c2ccccc12)C(=O)N[C@@H](CC(C)C)C(=O)N[C@@H](CCSC)C(=O)N[C@@H](CC(N)=O)C(=O)N[C@H](C(N)=O)[C@@H](C)O)C(C)C [Peptide 33] (H-HSQGTFTSDYSKYLDSRMAYDFVQWLMNT-NH2) | 0.079 ± 0.033 | 0.059 ± 0.003 |  |  |
| CC[C@H](C)[C@H](NC(=O)[C@H](CC(C)C)NC(=O)[C@H](Cc1c[nH]c2ccccc12)NC(=O)[C@H](CCC(N)=O)NC(=O)[C@@H](NC(=O)[C@H](Cc1ccccc1)NC(=O)[C@H](CC(=O)O)NC(=O)[C@H](CCC(N)=O)NC(=O)[C@H](C)NC(=O)[C@H](CCCNC(=N)N)NC(=O)[C@H](CCCNC(=N)N)NC(=O)[C@H](C)NC(=O)[C@H](CC(=O)O)NC(=O)[C@H](CC(C)C)NC(=O)[C@H](Cc1ccc(O)cc1)NC(=O)[C@H](CCCCN)NC(=O)[C@H](CO)NC(=O)[C@H](Cc1ccc(O)cc1)NC(=O)[C@H](CC(=O)O)NC(=O)[C@H](CO)NC(=O)[C@@H](NC(=O)[C@H](Cc1ccccc1)NC(=O)[C@@H](NC(=O)CNC(=O)[C@H](CCC(N)=O)NC(=O)[C@H](CO)NC(=O)[C@@H](N)Cc1c[nH]cn1)[C@@H](C)O)[C@@H](C)O)C(C)C)C(=O)N[C@@H](CCCNC(=N)N)C(=O)N[C@H](C(N)=O)[C@@H](C)O [Peptide 8] | 0.038 ± 0.01 | 0.017 ± 0.001 |  |  |
| CSCC[C@H](NC(=O)[C@H](CC(C)C)NC(=O)[C@H](Cc1c[nH]c2ccccc12)NC(=O)[C@H](CCC(N)=O)NC(=O)[C@@H](NC(=O)[C@H](Cc1ccccc1)NC(=O)[C@H](CC(=O)O)NC(=O)[C@H](CCC(N)=O)NC(=O)[C@H](C)NC(=O)[C@H](CCCNC(=N)N)NC(=O)[C@H](CCCNC(=N)N)NC(=O)[C@H](CO)NC(=O)[C@H](CC(=O)O)NC(=O)[C@H](CC(C)C)NC(=O)[C@H](Cc1ccc(O)cc1)NC(=O)[C@H](CCCCN)NC(=O)[C@H](CO)NC(=O)[C@H](Cc1ccc(O)cc1)NC(=O)[C@H](CC(=O)O)NC(=O)[C@H](CO)NC(=O)[C@@H](NC(=O)[C@H](Cc1ccccc1)NC(=O)[C@@H](NC(=O)CNC(=O)[C@H](Cc1c[nH]cn1)NC(=O)[C@H](CO)NC(=O)[C@@H](N)Cc1c[nH]cn1)[C@@H](C)O)[C@@H](C)O)C(C)C)C(=O)N[C@H](C(=O)N[C@H](C(N)=O)[C@@H](C)O)[C@@H](C)O [Peptide 29] | 0.032 ± 0.003 | 0.08 ± 0.006 |  |  |
| CCCCCCCCCCCCCCCC(=O)N[C@@H](CCC(=O)N[C@@H](CCC(=O)NCCCC[C@H](NC(=O)[C@H](CC(=O)O)NC(=O)[C@H](CO)NC(=O)[C@H](CC(C)C)NC(=O)[C@H](Cc1ccccc1)NC(=O)[C@@H](NC(=O)CNC(=O)[C@H](CCC(N)=O)NC(=O)[C@@H](CO)NC(=O)[C@@H](N)Cc1c[nH]cn1)[C@@H](C)O)C(=O)N[C@@H](CO)C(=O)N[C@@H](CCCCN)C(=O)N[C@@H](CC(C)C)C(=O)N[C@@H](CC(C)C)C(=O)N[C@@H](CC(=O)O)C(=O)N[C@@H](CO)C(=O)N[C@@H](CCCNC(=N)N)C(=O)N[C@@H](CCCNC(=N)N)C(=O)N[C@@H](C)C(=O)N[C@@H](CCC(N)=O)C(=O)N[C@@H](CC(=O)O)C(=O)N[C@@H](Cc1ccccc1)C(=O)N[C@H](C(=O)N[C@@H](CCC(N)=O)C(=O)N[C@@H](Cc1c[nH]c2ccccc12)C(=O)N[C@@H](CC(C)C)C(=O)N[C@@H](CCSC)C(=O)N[C@@H](CCC(N)=O)C(=O)N[C@H](C(N)=O)[C@@H](C)O)C(C)C)C(=O)O)C(=O)O [Peptide 37] (H-H[dS]QGTFLSDK([γGlu-γGlu-Palmitoyl])SKLLDSRRAQDFVQWLMQT-NH2; N-terminus assumed) |  |  | 0.037 ± 0.004 | 23.5 ± 7.6 |

Continued by falling EC50 [1, 3], values first:

| EC50 [1, 3] [nM] | EC50 [2, 4] [nM] | EC50 ([1]; Table 3, engineered versus parent peptides, read-out: EC50 hGCGR) [nM] | EC50 ([2]; Table 3, engineered versus parent peptides, cAMP accumulation, read-out: EC50 hGLP1) [nM] | Compound |
| --- | --- | --- | --- | --- |
| 0.027 ± 0.005 | 51.9 ± 57.7 |  |  | CC(C)C[C@H](NC(=O)[C@H](Cc1ccc(O)cc1)NC(=O)[C@H](CCCCN)NC(=O)[C@H](CO)NC(=O)[C@H](Cc1ccc(O)cc1)NC(=O)[C@H](CC(=O)O)NC(=O)[C@H](CO)NC(=O)[C@H](Cc1ccccc1)NC(=O)[C@H](Cc1ccccc1)NC(=O)[C@@H](NC(=O)CNC(=O)[C@H](CCC(N)=O)NC(=O)[C@H](CO)NC(=O)[C@@H](N)Cc1c[nH]cn1)[C@@H](C)O)C(=O)N[C@@H](CC(=O)O)C(=O)N[C@@H](CO)C(=O)N[C@@H](CCCNC(=N)N)C(=O)N[C@@H](CCCNC(=N)N)C(=O)N[C@@H](C)C(=O)N[C@@H](CCC(N)=O)C(=O)N[C@@H](CC(=O)O)C(=O)N[C@@H](Cc1ccccc1)C(=O)N[C@H](C(=O)N[C@@H](CCC(N)=O)C(=O)N[C@@H](Cc1c[nH]c2ccccc12)C(=O)N[C@@H](CC(C)C)C(=O)N[C@@H](CC(C)C)C(=O)N[C@@H](CCC(=O)O)C(=O)N[C@H](C(N)=O)[C@@H](C)O)C(C)C [Peptide 34] (H-HSQGTFFSDYSKYLDSRRAQDFVQWLLET-NH2) |
| 0.026 ± 0.001 | 0.018 ± 0.001 |  |  | CC(C)C[C@H](NC(=O)[C@H](Cc1ccc(O)cc1)NC(=O)[C@H](CCCCN)NC(=O)[C@H](CO)NC(=O)[C@H](Cc1ccc(O)cc1)NC(=O)[C@H](CC(=O)O)NC(=O)[C@H](CO)NC(=O)[C@@H](NC(=O)[C@H](Cc1ccccc1)NC(=O)[C@@H](NC(=O)CNC(=O)[C@H](CCC(N)=O)NC(=O)[C@H](CO)NC(=O)[C@@H](N)Cc1c[nH]cn1)[C@@H](C)O)[C@@H](C)O)C(=O)N[C@@H](CC(=O)O)C(=O)N[C@@H](CO)C(=O)N[C@@H](CCCCN)C(=O)N[C@@H](CCCNC(=N)N)C(=O)N[C@@H](C)C(=O)N[C@@H](Cc1c[nH]cn1)C(=O)N[C@@H](CC(=O)O)C(=O)N[C@@H](Cc1ccccc1)C(=O)N[C@H](C(=O)N[C@@H](CCC(N)=O)C(=O)N[C@@H](Cc1c[nH]c2ccccc12)C(=O)N[C@@H](CC(C)C)C(=O)N[C@@H](CC(C)C)C(=O)N[C@@H](CC(N)=O)C(=O)N[C@H](C(N)=O)[C@@H](C)O)C(C)C [Peptide 24] (H-HSQGTFTSDYSKYLDSKRAHDFVQWLLNT-NH2) |
| 0.026 ± 0.002 | 1.33 ± 0.209 |  |  | CC[C@H](C)[C@H](NC(=O)[C@H](CC(=O)O)NC(=O)[C@H](CC(C)C)NC(=O)[C@H](Cc1ccc(O)cc1)NC(=O)[C@H](CCCCN)NC(=O)[C@H](CO)NC(=O)[C@H](Cc1ccc(O)cc1)NC(=O)[C@H](CC(=O)O)NC(=O)[C@H](CO)NC(=O)[C@@H](NC(=O)[C@H](Cc1ccccc1)NC(=O)[C@@H](NC(=O)CNC(=O)[C@H](CCC(N)=O)NC(=O)[C@H](CO)NC(=O)[C@@H](N)Cc1c[nH]cn1)[C@@H](C)O)[C@@H](C)O)C(=O)NCC(=O)N[C@@H](CCCNC(=N)N)C(=O)N[C@@H](C)C(=O)N[C@@H](CCC(N)=O)C(=O)N[C@@H](CC(=O)O)C(=O)N[C@@H](Cc1ccccc1)C(=O)N[C@H](C(=O)N[C@@H](CCC(N)=O)C(=O)N[C@@H](Cc1c[nH]c2ccccc12)C(=O)N[C@@H](CC(C)C)C(=O)N[C@@H](CC(C)C)C(=O)N[C@@H](CC(N)=O)C(=O)N[C@H](C(N)=O)[C@@H](C)O)C(C)C [Peptide 4] (H-HSQGTFTSDYSKYLDIGRAQDFVQWLLNT-NH2) |
| 0.019 ± 0.001 | 0.017 ± 0.001 |  |  | CC(C)C[C@H](NC(=O)[C@H](Cc1ccc(O)cc1)NC(=O)[C@H](CCCCN)NC(=O)[C@H](CO)NC(=O)[C@H](Cc1ccc(O)cc1)NC(=O)[C@H](CC(=O)O)NC(=O)[C@H](CO)NC(=O)[C@@H](NC(=O)[C@H](Cc1ccccc1)NC(=O)[C@@H](NC(=O)CNC(=O)[C@H](CCC(N)=O)NC(=O)[C@H](CO)NC(=O)[C@@H](N)Cc1c[nH]cn1)[C@@H](C)O)[C@@H](C)O)C(=O)N[C@@H](CC(=O)O)C(=O)N[C@@H](Cc1c[nH]c2ccccc12)C(=O)N[C@@H](CCCNC(=N)N)C(=O)N[C@@H](CCCNC(=N)N)C(=O)N[C@@H](C)C(=O)N[C@@H](CCC(N)=O)C(=O)N[C@@H](CC(=O)O)C(=O)N[C@@H](Cc1ccccc1)C(=O)N[C@H](C(=O)N[C@@H](CCC(N)=O)C(=O)N[C@@H](Cc1c[nH]c2ccccc12)C(=O)N[C@@H](CC(C)C)C(=O)N[C@@H](CCC(N)=O)C(=O)N[C@@H](CC(N)=O)C(=O)N[C@H](C(N)=O)[C@@H](C)O)C(C)C [Peptide 23] |
